Laboratory results reported in the supplement of paper PMC10307832.

How the values were obtained:
Assay in all cases: relative viability (nuclei count vs DMSO), 5 days (fraction); higher = more cells survive
[1] = test system: COR-L 105
Method in brief: (§1)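 Relative viability is defined as nuclei in treated wells over nuclei in vehicle wells. Duplicate plates were run and medians reported. Lung cancer cell lines in 1536-well plates were dosed by pin tool one day after seeding, with one drug or with a fixed anchor-drug dose plus five library-drug doses (not always all listed) in √10 steps, and nuclei were counted after 5 days.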

[2] = test system: NCI-H23
Method in brief: as §1

[3] = test system: HCC-827
Method in brief: as §1

[4] = test system: LXF-289
Method in brief: as §1

[5] = test system: UMC-11
Method in brief: as §1

[6] = test system: NCI-H2085
Method in brief: as §1

[7] = test system: NCI-H2405
Method in brief: as §1

[8] = test system: LC-2-ad
Method in brief: as §1

[9] = test system: H3255
Method in brief: as §1

[10] = test system: LU99A
Method in brief: as §1

[11] = test system: LCLC-103H
Method in brief: as §1

[12] = test system: NCI-H1437
Method in brief: as §1

[13] = test system: NCI-H1651
Method in brief: as §1

[14] = test system: 201T
Method in brief: as §1

[15] = test system: NCI-H322M
Method in brief: as §1

[16] = test system: CAL-12T
Method in brief: as §1

[17] = test system: LK-2
Method in brief: as §1

[18] = test system: BEN
Method in brief: as §1

[19] = test system: HARA
Method in brief: as §1

[20] = test system: NCI-H2228
Method in brief: as §1

[21] = test system: RERF-LC-KJ
Method in brief: as §1

[22] = test system: HCC-15
Method in brief: as §1

Question: How did the relative viability ([1]; first compound 0.08 µM) turn out when `O=c1[nH]c2ccccc2n1C1CCN(CCCC(c2ccc(F)cc2)c2ccc(F)cc2)CC1` [Pimozide] + O=C(CCCCCCC(=O)Nc1ccccc1)NO [Vorinostat] (partner 1 µM) was run?
Answer: 0.702

Question: And the relative viability ([1]; first compound 0.253 µM)?
Answer: 0.767

Question: What about the relative viability ([1]; first compound 0.8 µM) of the same compound?
Answer: 0.821

Question: And the relative viability ([1]; first compound 2.53 µM)?
Answer: 0.833

Question: What about the relative viability ([1]; first compound 8 µM) of the same compound?
Answer: 0.751

Question: What about the relative viability ([2]; first compound 0.08 µM) of the same compound?
Answer: 0.573

Question: What about the relative viability ([2]; first compound 0.253 µM) of the same compound?
Answer: 0.551

Question: What about the relative viability ([2]; first compound 0.8 µM) of the same compound?
Answer: 0.49

Question: What about the relative viability ([2]; first compound 2.53 µM) of the same compound?
Answer: 0.575

Question: And the relative viability ([2]; first compound 8 µM)?
Answer: 0.52

Question: And the relative viability ([3]; first compound 0.253 µM)?
Answer: 0.791

Question: And the relative viability ([3]; first compound 0.8 µM)?
Answer: 0.738

Question: And the relative viability ([3]; first compound 2.53 µM)?
Answer: 0.785

Question: What about the relative viability ([3]; first compound 8 µM) of the same compound?
Answer: 0.843

Question: And the relative viability ([4]; first compound 0.08 µM)?
Answer: 0.796

Question: What about the relative viability ([4]; first compound 0.253 µM) of the same compound?
Answer: 0.748

Question: And the relative viability ([4]; first compound 0.8 µM)?
Answer: 0.718

Question: What about the relative viability ([4]; first compound 2.53 µM) of the same compound?
Answer: 0.88

Question: And the relative viability ([4]; first compound 8 µM)?
Answer: 0.755

Question: And the relative viability ([5]; first compound 0.08 µM)?
Answer: 0.426

Question: And the relative viability ([5]; first compound 0.253 µM)?
Answer: 0.388

Question: And the relative viability ([5]; first compound 0.8 µM)?
Answer: 0.348

Question: And the relative viability ([5]; first compound 2.53 µM)?
Answer: 0.382

Question: And the relative viability ([5]; first compound 8 µM)?
Answer: 0.318

Question: What about the relative viability ([6]; first compound 0.08 µM) of the same compound?
Answer: 0.77

Question: What about the relative viability ([6]; first compound 0.253 µM) of the same compound?
Answer: 0.861

Question: And the relative viability ([6]; first compound 0.8 µM)?
Answer: 0.723

Question: And the relative viability ([6]; first compound 2.53 µM)?
Answer: 0.802

Question: And the relative viability ([6]; first compound 8 µM)?
Answer: 0.741

Question: What about the relative viability ([7]; first compound 0.08 µM) of the same compound?
Answer: 1.01

Question: What about the relative viability ([7]; first compound 0.253 µM) of the same compound?
Answer: 0.964

Question: What about the relative viability ([7]; first compound 0.8 µM) of the same compound?
Answer: 0.955

Question: And the relative viability ([7]; first compound 2.53 µM)?
Answer: 1.01

Question: What about the relative viability ([7]; first compound 8 µM) of the same compound?
Answer: 0.791

Question: What about the relative viability ([8]; first compound 0.08 µM) of the same compound?
Answer: 0.731

Question: What about the relative viability ([8]; first compound 0.253 µM) of the same compound?
Answer: 0.661

Question: And the relative viability ([8]; first compound 0.8 µM)?
Answer: 0.499

Question: And the relative viability ([8]; first compound 2.53 µM)?
Answer: 0.653

Question: What about the relative viability ([8]; first compound 8 µM) of the same compound?
Answer: 0.655

Question: What about the relative viability ([9]; first compound 0.253 µM) of the same compound?
Answer: 0.699

Question: What about the relative viability ([9]; first compound 0.8 µM) of the same compound?
Answer: 0.714

Question: And the relative viability ([9]; first compound 2.53 µM)?
Answer: 0.843

Question: What about the relative viability ([9]; first compound 8 µM) of the same compound?
Answer: 0.808

Question: And the relative viability ([10]; first compound 0.08 µM)?
Answer: 0.595

Question: What about the relative viability ([10]; first compound 0.8 µM) of the same compound?
Answer: 0.418

Question: And the relative viability ([10]; first compound 2.53 µM)?
Answer: 0.5

Question: What about the relative viability ([10]; first compound 8 µM) of the same compound?
Answer: 0.537

Question: And the relative viability ([11]; first compound 0.08 µM)?
Answer: 0.814

Question: And the relative viability ([11]; first compound 0.253 µM)?
Answer: 0.802

Question: What about the relative viability ([11]; first compound 0.8 µM) of the same compound?
Answer: 0.598

Question: And the relative viability ([11]; first compound 2.53 µM)?
Answer: 0.759

Question: And the relative viability ([11]; first compound 8 µM)?
Answer: 0.717

Question: What about the relative viability ([12]; first compound 0.08 µM) of the same compound?
Answer: 0.786

Question: What about the relative viability ([12]; first compound 0.253 µM) of the same compound?
Answer: 0.763

Question: What about the relative viability ([12]; first compound 0.8 µM) of the same compound?
Answer: 0.767

Question: And the relative viability ([12]; first compound 2.53 µM)?
Answer: 0.67

Question: What about the relative viability ([12]; first compound 8 µM) of the same compound?
Answer: 0.405

Question: What about the relative viability ([13]; first compound 0.08 µM) of the same compound?
Answer: 0.565

Question: What about the relative viability ([13]; first compound 0.253 µM) of the same compound?
Answer: 0.507

Question: And the relative viability ([13]; first compound 0.8 µM)?
Answer: 0.599

Question: And the relative viability ([13]; first compound 2.53 µM)?
Answer: 0.578

Question: What about the relative viability ([13]; first compound 8 µM) of the same compound?
Answer: 0.593

Question: And the relative viability ([14]; first compound 0.08 µM)?
Answer: 0.881

Question: What about the relative viability ([14]; first compound 0.253 µM) of the same compound?
Answer: 0.964

Question: What about the relative viability ([14]; first compound 0.8 µM) of the same compound?
Answer: 0.863

Question: And the relative viability ([14]; first compound 2.53 µM)?
Answer: 0.942

Question: And the relative viability ([14]; first compound 8 µM)?
Answer: 0.72

Question: And the relative viability ([15]; first compound 0.08 µM)?
Answer: 0.885

Question: What about the relative viability ([15]; first compound 0.253 µM) of the same compound?
Answer: 0.844

Question: And the relative viability ([15]; first compound 0.8 µM)?
Answer: 0.88

Question: And the relative viability ([15]; first compound 2.53 µM)?
Answer: 0.885

Question: And the relative viability ([15]; first compound 8 µM)?
Answer: 0.786

Question: What about the relative viability ([16]; first compound 0.08 µM) of the same compound?
Answer: 0.732

Question: What about the relative viability ([16]; first compound 0.253 µM) of the same compound?
Answer: 0.896

Question: What about the relative viability ([16]; first compound 0.8 µM) of the same compound?
Answer: 0.7

Question: And the relative viability ([16]; first compound 2.53 µM)?
Answer: 0.665

Question: What about the relative viability ([16]; first compound 8 µM) of the same compound?
Answer: 0.664

Question: And the relative viability ([17]; first compound 0.08 µM)?
Answer: 0.2

Question: And the relative viability ([17]; first compound 0.253 µM)?
Answer: 0.342

Question: What about the relative viability ([17]; first compound 0.8 µM) of the same compound?
Answer: 0.254

Question: What about the relative viability ([17]; first compound 2.53 µM) of the same compound?
Answer: 0.267

Question: What about the relative viability ([17]; first compound 8 µM) of the same compound?
Answer: 0.395

Question: What about the relative viability ([18]; first compound 0.08 µM) of the same compound?
Answer: 0.558

Question: What about the relative viability ([18]; first compound 0.253 µM) of the same compound?
Answer: 0.579

Question: What about the relative viability ([18]; first compound 0.8 µM) of the same compound?
Answer: 0.607

Question: What about the relative viability ([18]; first compound 2.53 µM) of the same compound?
Answer: 0.601

Question: What about the relative viability ([18]; first compound 8 µM) of the same compound?
Answer: 0.603

Question: What about the relative viability ([19]; first compound 0.08 µM) of the same compound?
Answer: 0.433

Question: What about the relative viability ([19]; first compound 0.253 µM) of the same compound?
Answer: 0.477

Question: What about the relative viability ([19]; first compound 0.8 µM) of the same compound?
Answer: 0.519

Question: What about the relative viability ([19]; first compound 2.53 µM) of the same compound?
Answer: 0.484

Question: What about the relative viability ([19]; first compound 8 µM) of the same compound?
Answer: 0.399

Question: And the relative viability ([20]; first compound 0.08 µM)?
Answer: 0.623

Question: And the relative viability ([20]; first compound 0.253 µM)?
Answer: 0.668

Question: What about the relative viability ([20]; first compound 0.8 µM) of the same compound?
Answer: 0.668

Question: And the relative viability ([20]; first compound 2.53 µM)?
Answer: 0.677

Question: And the relative viability ([20]; first compound 8 µM)?
Answer: 0.318

Question: What about the relative viability ([21]; first compound 0.08 µM) of the same compound?
Answer: 0.616

Question: And the relative viability ([21]; first compound 0.253 µM)?
Answer: 0.677

Question: And the relative viability ([21]; first compound 0.8 µM)?
Answer: 0.612

Question: What about the relative viability ([21]; first compound 2.53 µM) of the same compound?
Answer: 0.463

Question: What about the relative viability ([21]; first compound 8 µM) of the same compound?
Answer: 0.613

Question: And the relative viability ([22]; first compound 0.08 µM)?
Answer: 0.828

Question: What about the relative viability ([22]; first compound 0.253 µM) of the same compound?
Answer: 0.746

Question: What about the relative viability ([22]; first compound 0.8 µM) of the same compound?
Answer: 0.83

Question: What about the relative viability ([22]; first compound 2.53 µM) of the same compound?
Answer: 0.788

Question: And the relative viability ([22]; first compound 8 µM)?
Answer: 0.703
